# Activity calls are given as the source filed them. The calls are words filed in the database; no cut-off is given here.
# System: not listed separately
# Assay: Cytotoxicity against human HL60 cells after 48 hrs by WST8 assay
# Format: functional, cell-based
# Settings: HL-60, 48 h
row,Structure (SMILES),IC50 [µM]
1,COC[C@H](C)[C@H](C)C(c1ccc(O)c(OC)c1)c1ccc(O)c(OC)c1,82
2,COC[C@H](C)[C@@H](C)C(c1ccc(O)c(OC)c1)c1ccc(O)c(OC)c1,68
3,COc1cc(C(c2ccc(O)c(OC)c2)[C@H](CO)C(C)C)ccc1O,> 100
4,COc1ccc(C(c2ccc(OC)c(OC)c2)[C@@H](C)[C@@H](C)CO)cc1OC,> 100
5,COC[C@H](C(C)C)C(c1ccc(O)c(OC)c1)c1ccc(O)c(OC)c1,72
6,COc1ccc(C(c2ccc(OC)c(OC)c2)[C@H](C)[C@H](C)CO)cc1OC,> 100
7,COc1cc(C(c2ccc(O)c(OC)c2)[C@H](C)C(C)C)ccc1O,17
8,COc1ccc(C(c2ccc(OC)c(OC)c2)[C@H](C)[C@@H](C)CO)cc1OC,47
9,COC[C@@H](C)[C@H](C)C(c1ccc(O)c(OC)c1)c1ccc(O)c(OC)c1,73
10,COc1cc(C(c2ccc(O)c(OC)c2)[C@H](C)[C@H](C)CF)ccc1O,56
11,COc1cc(C(c2ccc(O)c(OC)c2)[C@@H](CF)C(C)C)ccc1O,39
12,COc1cc(C(c2ccc(O)c(OC)c2)[C@@H](CO)C(C)C)ccc1O,> 100
13,COc1cc(C(c2ccc(O)c(OC)c2)[C@@H](C)C(C)C)ccc1O,20
14,COc1cc(C(c2ccc(O)c(OC)c2)[C@H](C)[C@@H](C)CO)ccc1O,> 100
15,COc1cc(C(c2ccc(O)c(OC)c2)[C@@H](C)[C@@H](C)CO)ccc1O,> 100
16,CC[C@H](C(C)C)C(c1ccc(O)c(OC)c1)c1ccc(O)c(OC)c1,16
17,COc1cc(C(c2ccc(O)c(OC)c2)[C@H](C)[C@@H](C)CF)ccc1O,45
18,CCCCCCCC[C@H](C(C)C)C(c1ccc(O)c(OC)c1)c1ccc(O)c(OC)c1,3.7
19,COc1ccc(C(c2ccc(OC)c(OC)c2)[C@@H](C)[C@H](C)CO)cc1OC,> 100
20,COC[C@@H](C)[C@@H](C)C(c1ccc(O)c(OC)c1)c1ccc(O)c(OC)c1,85
21,COc1cc(C(c2ccc(O)c(OC)c2)[C@H](CF)C(C)C)ccc1O,19
22,COc1cc(C(c2ccc(O)c(OC)c2)[C@@H](C)[C@@H](C)CF)ccc1O,38
23,COc1cc(C(c2ccc(O)c(OC)c2)[C@H](CC(C)C)C(C)C)ccc1O,9.6
24,CCCCC[C@H](C(C)C)C(c1ccc(O)c(OC)c1)c1ccc(O)c(OC)c1,9.6
25,COc1cc(C(c2ccc(O)c(OC)c2)[C@@H](C)[C@H](C)CO)ccc1O,> 100
26,COC[C@@H](C(C)C)C(c1ccc(O)c(OC)c1)c1ccc(O)c(OC)c1,54
27,COc1cc(C(c2ccc(O)c(OC)c2)[C@H](C)[C@H](C)CO)ccc1O,> 100
28,COc1cc(C(c2ccc(O)c(OC)c2)[C@@H](C)[C@H](C)CF)ccc1O,32

# System: not listed separately
# Assay: Cytotoxicity against human HL60 cells assessed as inhibition of cell growth at 100 uM after 48 hrs by WST8 assay
# Format: functional
# Settings: HL-60, 48 h, read-out: GI
row,Structure (SMILES),inhibition of growth at 100 µM [%]
1,COc1cc(C(c2ccc(O)c(OC)c2)[C@H](CO)C(C)C)ccc1O,10
2,COc1ccc(C(c2ccc(OC)c(OC)c2)[C@@H](C)[C@@H](C)CO)cc1OC,42
3,COc1ccc(C(c2ccc(OC)c(OC)c2)[C@H](C)[C@H](C)CO)cc1OC,28
4,COc1cc(C(c2ccc(O)c(OC)c2)[C@@H](CO)C(C)C)ccc1O,18
5,COc1cc(C(c2ccc(O)c(OC)c2)[C@H](C)[C@@H](C)CO)ccc1O,7
6,COc1cc(C(c2ccc(O)c(OC)c2)[C@@H](C)[C@@H](C)CO)ccc1O,3
7,COc1ccc(C(c2ccc(OC)c(OC)c2)[C@@H](C)[C@H](C)CO)cc1OC,0
8,COc1cc(C(c2ccc(O)c(OC)c2)[C@@H](C)[C@H](C)CO)ccc1O,0
9,COc1cc(C(c2ccc(O)c(OC)c2)[C@H](C)[C@H](C)CO)ccc1O,23

# System: HeLa
# Assay: Cytotoxicity against human HeLa cells after 48 hrs by WST8 assay
# Format: functional, cell-based
# Settings: not given
row,Structure (SMILES),IC50 [µM]
1,COC[C@H](C)[C@H](C)C(c1ccc(O)c(OC)c1)c1ccc(O)c(OC)c1,72
2,COC[C@H](C)[C@@H](C)C(c1ccc(O)c(OC)c1)c1ccc(O)c(OC)c1,77
3,COc1cc(C(c2ccc(O)c(OC)c2)[C@H](CO)C(C)C)ccc1O,> 100
4,COc1ccc(C(c2ccc(OC)c(OC)c2)[C@@H](C)[C@@H](C)CO)cc1OC,> 100
5,COC[C@H](C(C)C)C(c1ccc(O)c(OC)c1)c1ccc(O)c(OC)c1,76
6,COc1ccc(C(c2ccc(OC)c(OC)c2)[C@H](C)[C@H](C)CO)cc1OC,> 100
7,COc1cc(C(c2ccc(O)c(OC)c2)[C@H](C)C(C)C)ccc1O,16
8,COc1ccc(C(c2ccc(OC)c(OC)c2)[C@H](C)[C@@H](C)CO)cc1OC,67
9,COC[C@@H](C)[C@H](C)C(c1ccc(O)c(OC)c1)c1ccc(O)c(OC)c1,58
10,COc1cc(C(c2ccc(O)c(OC)c2)[C@H](C)[C@H](C)CF)ccc1O,75
11,COc1cc(C(c2ccc(O)c(OC)c2)[C@@H](CF)C(C)C)ccc1O,41
12,COc1cc(C(c2ccc(O)c(OC)c2)[C@@H](CO)C(C)C)ccc1O,> 100
13,COc1cc(C(c2ccc(O)c(OC)c2)[C@@H](C)C(C)C)ccc1O,19
14,COc1cc(C(c2ccc(O)c(OC)c2)[C@H](C)[C@@H](C)CO)ccc1O,> 100
15,COc1cc(C(c2ccc(O)c(OC)c2)[C@@H](C)[C@@H](C)CO)ccc1O,> 100
16,CC[C@H](C(C)C)C(c1ccc(O)c(OC)c1)c1ccc(O)c(OC)c1,9.7
17,COc1cc(C(c2ccc(O)c(OC)c2)[C@H](C)[C@@H](C)CF)ccc1O,34
18,CCCCCCCC[C@H](C(C)C)C(c1ccc(O)c(OC)c1)c1ccc(O)c(OC)c1,3.1
19,COc1ccc(C(c2ccc(OC)c(OC)c2)[C@@H](C)[C@H](C)CO)cc1OC,> 100
20,COC[C@@H](C)[C@@H](C)C(c1ccc(O)c(OC)c1)c1ccc(O)c(OC)c1,> 100
21,COc1cc(C(c2ccc(O)c(OC)c2)[C@H](CF)C(C)C)ccc1O,19
22,COc1cc(C(c2ccc(O)c(OC)c2)[C@@H](C)[C@@H](C)CF)ccc1O,42
23,COc1cc(C(c2ccc(O)c(OC)c2)[C@H](CC(C)C)C(C)C)ccc1O,8.2
24,CCCCC[C@H](C(C)C)C(c1ccc(O)c(OC)c1)c1ccc(O)c(OC)c1,9.2
25,COc1cc(C(c2ccc(O)c(OC)c2)[C@@H](C)[C@H](C)CO)ccc1O,> 100
26,COC[C@@H](C(C)C)C(c1ccc(O)c(OC)c1)c1ccc(O)c(OC)c1,69
27,COc1cc(C(c2ccc(O)c(OC)c2)[C@H](C)[C@H](C)CO)ccc1O,> 100
28,COc1cc(C(c2ccc(O)c(OC)c2)[C@@H](C)[C@H](C)CF)ccc1O,37

# System: HeLa
# Assay: Cytotoxicity against human HeLa cells assessed as inhibition of cell growth at 100 uM after 48 hrs by WST8 assay
# Format: functional
# Settings: read-out: GI
row,Structure (SMILES),inhibition of growth at 100 µM [%]
1,COc1cc(C(c2ccc(O)c(OC)c2)[C@H](CO)C(C)C)ccc1O,3
2,COc1ccc(C(c2ccc(OC)c(OC)c2)[C@@H](C)[C@@H](C)CO)cc1OC,55
3,COc1ccc(C(c2ccc(OC)c(OC)c2)[C@H](C)[C@H](C)CO)cc1OC,13
4,COc1cc(C(c2ccc(O)c(OC)c2)[C@@H](CO)C(C)C)ccc1O,2
5,COc1cc(C(c2ccc(O)c(OC)c2)[C@H](C)[C@@H](C)CO)ccc1O,7
6,COc1cc(C(c2ccc(O)c(OC)c2)[C@@H](C)[C@@H](C)CO)ccc1O,8
7,COc1ccc(C(c2ccc(OC)c(OC)c2)[C@@H](C)[C@H](C)CO)cc1OC,0
8,COC[C@@H](C)[C@@H](C)C(c1ccc(O)c(OC)c1)c1ccc(O)c(OC)c1,34
9,COc1cc(C(c2ccc(O)c(OC)c2)[C@@H](C)[C@H](C)CO)ccc1O,7
10,COc1cc(C(c2ccc(O)c(OC)c2)[C@H](C)[C@H](C)CO)ccc1O,0

# System: HL-60
# Assay: Induction of apoptosis in human HL60 cells assessed as early apoptosis level at 8 uM after 24 hrs by Annexin V-PE and 7-AAD staining based flow cytometry (reference value: 3.3%)
# Format: functional
# Settings: not given
row,Structure (SMILES),Activity [%]
1,CCCCCCCC[C@H](C(C)C)C(c1ccc(O)c(OC)c1)c1ccc(O)c(OC)c1,13.5

# System: HL-60
# Assay: Induction of apoptosis in human HL60 cells assessed as late apoptosis level at 8 uM after 24 hrs by Annexin V-PE and 7-AAD staining based flow cytometry (reference value: 3.2%)
# Format: functional
# Settings: not given
row,Structure (SMILES),Activity [%]
1,CCCCCCCC[C@H](C(C)C)C(c1ccc(O)c(OC)c1)c1ccc(O)c(OC)c1,33.1

# System: HL-60
# Assay: Induction of apoptosis in human HL60 cells assessed as late apoptosis level at 0.2 uM after 24 hrs by Annexin V-PE and 7-AAD staining based flow cytometry (reference value: 3.3%)
# Format: functional
# Settings: not given
row,Structure (SMILES),Activity [%]
1,CN[C@@H]1C[C@H]2O[C@@](C)([C@@H]1OC)n1c3ccccc3c3c4c(c5c6ccccc6n2c5c31)C(=O)NC4 [STAUROSPORINE],17.4

# System: HL-60
# Assay: Induction of apoptosis in human HL60 cells assessed as reduction in pro-caspase-9 level at 8 uM after 24 hrs by Western blotting method
# Format: functional, cell-based
# Settings: not given
row,Structure (SMILES),Activity
1,CCCCCCCC[C@H](C(C)C)C(c1ccc(O)c(OC)c1)c1ccc(O)c(OC)c1,Active

# System: HL-60
# Assay: Induction of apoptosis in human HL60 cells assessed as increase in caspase-9 level at 8 uM after 12 hrs by Western blotting method
# Format: functional, cell-based
# Settings: not given
row,Structure (SMILES),Activity
1,CCCCCCCC[C@H](C(C)C)C(c1ccc(O)c(OC)c1)c1ccc(O)c(OC)c1,Active

# System: HL-60
# Assay: Induction of apoptosis in human HL60 cells assessed as increase in caspase-3 level at 8 uM after 24 hrs by Western blotting method
# Format: functional, cell-based
# Settings: not given
row,Structure (SMILES),Activity
1,CCCCCCCC[C@H](C(C)C)C(c1ccc(O)c(OC)c1)c1ccc(O)c(OC)c1,Active

# System: HL-60
# Assay: Induction of apoptosis in human HL60 cells assessed as increase in DNA fragmentation at 25 uM after 4 hrs by ethidium bromide staining and gel electrophoresis based DNA ladder analysis
# Format: functional, cell-based
# Settings: not given
row,Structure (SMILES),Activity
1,CCCCCCCC[C@H](C(C)C)C(c1ccc(O)c(OC)c1)c1ccc(O)c(OC)c1,Active
